Reference: patent US20230256007A1 (priority 2022, published 2023)

Experiments:
[1] = test system: patient with sequelae of influenza virus type A infection; conditions: Case 3
[2] = test system: patient with sequelae of infection with the delta variant of coronavirus; conditions: Case 1
Source text: Although the patient was cured after home care, their activity level was lower than that of a healthy person. Fatigue, pain, and decrease in thinking power progressed extremely, and the level of daily life decreased below the level of a healthy person, so they underwent a medical examination at the hospital. The diagnosis based on the physician’s diagnostic criteria was as follows. • (i) Fatigue - persistent, fatigue so pronounced that the activity level is severely impaired: severity 3 (severe) • (ii) Feeling of fatigue after exertion - loss of physical and mental endurance, fatigue aggravated by physical exertion: severity 3 (severe) • (iii) Long recovery time from exertion - it takes 24 hours or more to recover to pre-exertion activity level: severity 2 (moderate) • (iv) Pain - muscle pain, joint pain, headache: severity 2 (moderate) • (v) Sleeping disorder - nonrestorative sleep, insomnia, hypersomnia: severity 2 (moderate) • (vi) Confusion and loss of concentration: severity 2 (moderate) • (vii) Memory impairment - short-term memory is impaired: severity 1 (mild) • (viii) Shortness of breath associated with exertion: severity 2 (moderate) • (ix) Gastrointestinal disorder - diarrhea, irritable bowel syndrome: severity 1 (mild) • (x) Repeated sore throat: severity 1 (mild) • (xi) Dizziness when standing up or fragility: severity 1 (mild) • (xii) Heat/cold intolerance: severity 1 (mild) • (xiii) Body temperature changes, irregular body temperature, cold hands and feet: severity 1 (mild)

[3] = around 3 weeks after inhalation
[4] = after 4 weeks of inhalation, before inhalation severity 2: moderate

SMILES: [HH] [hydrogen gas, hydrogen]
- Number of days without naps ([1]; after 8 weeks): increased
- Amount of time for physical activity ([1]; after 8 weeks, although there was malaise): increased
- Bowel movements and decreased motivation [1, 3]: improvement
- Nap time [1, 3]: decreased
- General feeling ([1]; around 3 weeks after inhalation, about 4% to 5% hydrogen, 5 hours per day): felt a little lighter
- Effect on chronic fatigue, pain, and brain fog (summary) [2]: clearly effective
- Feeling on inhalation (sympathetic nerves high before inhalation) ([2]; after 2 weeks of inhalation): felt relaxed and drowsy
- Foggy head / brain fog ([2]; after 2 weeks of inhalation): their head appeared clear and refreshed
- Frequency of headache and generalized pain ([2]; after 2 weeks of inhalation): seemed to decrease
- Number of doses of analgesics ([2]; after 2 weeks of inhalation): decreased
- Bedridden chronic severe fatigue (patient's impression) ([2]; after 4 weeks of inhalation): significantly alleviated
- Cognitive ability (patient's impression) ([2]; after 4 weeks of inhalation): regained some of their writing and summarizing skills
- Foggy feeling in the brain (patient's impression) ([2]; after 4 weeks of inhalation): alleviated
- Number of doses of analgesics relative to that before hydrogen inhalation ([2]; after 4 weeks of inhalation): ¼
- Other symptoms (not significantly recovered) ([2]; after 4 weeks of inhalation): did not worsen
- Sleeping disorder ([2]; after 4 weeks of inhalation): same strong symptoms as before
- Long recovery time from exertion: severity after inhalation (physician's diagnosis) [2, 4]: severity 1: mild
- Loss of concentration: severity after inhalation (physician's diagnosis) [2, 4]: severity 1: mild
- Pain, headache: severity after inhalation (physician's diagnosis) [2, 4]: severity 1: mild
- Repeated sore throat: severity after inhalation (physician's diagnosis) [2, 4]: severity 1: mild
- Fatigue - persistent, activity level severely impaired: severity after inhalation (physician's diagnosis) ([2]; after 4 weeks of inhalation, before inhalation severity 3: severe): severity 1: mild, or severity 2: moderate
- Days on which they feel better like a healthy person ([2]; after 4 weeks of inhalation, still falls asleep 2 or 3 days a week): more than half the days of the week
- Pain due to training, the next day ([2]; inhalation for about 90 minutes every day): almost eliminated the pain the next day
- Falling asleep 1 to 2 hours after exertion (sudden intense fatigue) ([2]; inhaling hydrogen for about 90 minutes): can avoid falling asleep
- Frequency of headache (patient's impression) ([2]; since the start of inhalation, once or twice a week before): decreased significantly, and headache has almost disappeared
- Muscle pain and joint pain after training ([2]; two weeks after starting inhalation): began to be greatly alleviated
